From US20120129712A1, “ANTIBODIES DIRECTED TO TRA ANTIGENS, AND METHODS OF PRODUCTION, SCREENING AND ANALYSIS OF SAID ANTIBODIES, AS WELL AS METHODS OF ANALYSIS OF STEM CELLS AND CANCER CELL” (GLYKOS FINLAND OY, priority 2009, published 2012)
Entries after “also recorded” stand apart in the source; their conditions may differ.

Experiments:
[1] = tested on: Tra-1-81 antibody; assay: Glycan microarray analysis (Consortium for Functional Glycomics printed array v3.2), binding of Tra-1-81; set-up: RFU (glycan binding signal of Tra-1-81): dose or concentration left out as unconfirmed; conditions: for RFU (glycan binding signal of Tra-1-81): Tra-1-81 (Chemicon MAB4381), average RFU of 6 replicates after removal of highest and lowest values; for binding of Tra-1-81 to the glycan, in words: glycan microarray
Experimental: (§1) Tra-1-81 and Tra-1-60 antibodies were from Chemicon (MAB4381 and MAB4361, respectively).
(§2) Glycan microarray analysis was carried out by the Consortium for Functional Glycomics. Glycan microarrays were printed as described (Blixt 2004). Version 3.2 of the human printed glycan array was used for analysis. Binding analysis was performed at […] of antibody. Data are reported as average RFU of 6 replicates after removal of highest and lowest values.

[2] = tested on: Tra-1-60 antibody; assay: Glycan microarray analysis (Consortium for Functional Glycomics printed array v3.2), binding of Tra-1-60
Experimental: as §1, §2

Substance | RFU (glycan binding signal of Tra-1-81) [1] [RFU] | binding of Tra-1-81 to the glycan, in words ([1]; listed as Galβ1-3GlcNAcβ1-3Galβ1-4GlcNAc) | binding of Tra-1-60 to the glycan, in words [2] | binding of Tra-1-81 to the glycan, in words [1]
Galb1-3GlcNAcb1-3Galb1-4GlcNAcb-Sp0 [Chart # 130] | 721 | binding; also recorded: specifically bound | exclusively bound | 
Galb1-3GlcNAcb1-3Galb1-4Glcb-Sp10 [Chart # 131] |  |  | very weak or non-essential binding | weakly bound
Galb1-3GlcNacb1-3(Galb1-3GlcNacb1-3Galb1-4GlcNacb1-6)Galb1-4Glcb-Sp0 [Chart # 379] | 147 |  |  | specifically bound
Lewis a |  |  |  | weakly bound
